How the values were obtained:
Format in all cases: biochemical
CDK2^K88E/cyclin A = biological target: T1, CDK2^K88E/cyclin A (Homo sapiens, UniProt P24941, K88E); assay: Bandshift kinase assay after incubation and dialysis, mutant
T1 construct: GST (N, cleaved yes); made in house; host or cells: Escherichia coli; phosphorylated in vitro by GST-CAK
Experimental: The bandshift experiment was repeated after incubating CDK2^K88E/cyclin A and CDK2^K89V/cyclin A with NU6300, NU6310, or DMSO followed by dialysis to remove unbound inhibitor (Figure S2G).
Figure S2, Related to Figure 3. Identification of the site of CDK2 modification by NU6300. (A-G) Single site CDK2 mutants CDK2D86A, CDK2K88E, and CDK2K89V identify the site of CDK2 modification by NU6300. These mutations change the CDK2 sequence to that of CDK7 and are known not to disrupt the CDK2 fold. Mass spectra of CDK2 mutants: […]
(G) Protein kinase activity of authentic CDK2 and single site CDK2 mutants following incubation with NU6300 or NU6310. Samples were taken at the indicated number of minutes after initiation of the reaction. Note that compared to authentic CDK2, the single site Lys88 and Lys89 mutants have a slower rate of reaction (Compare LHS panels). This drop in activity was expected because whereas the wild type protein was produced by co-expression with S. cerevisiae […]
the mutant proteins were activated by S. cerevisiae CAK1 phosphorylation in vitro– a relatively inefficient process as judged from the results of ESI-MS (Table S1). (H) NU6300 […]
NU6300 carbon atoms are coloured green. Rb, retinoblastoma protein, Phospho-Rb, […]
Protein expression and purification
Site-directed mutagenesis of CDK2 was performed using the QuikChange II kit (Stratagene) following the manufacturer’s instructions and verified by DNA sequencing.
Wild-type CDK2 phosphorylated at Thr160, untagged human cyclin A2 (residues 174-432), S. cerevisiae GST–CAK, GST–3C-protease and GST–pRb (residues 792–928) were expressed and purified as previously described (Brown et al., 1999a; Brown et al., 1999b; Welburn and Endicott, 2005). […]
CDK2/cyclin A (200 µM) was incubated overnight with 1 mM inhibitor or DMSO, and then dialysed for 8 h with regular replacement of dialysis buffer into HEPES-buffered saline (50 mM HEPES, pH 7.5, 250 mM NaCl, 0.02% MTG). […] Reactions were stopped by addition of SDS-PAGE loading buffer and analyzed by SDS-PAGE. […]

TAK1 = biological target: T2, TAK1 (Homo sapiens, UniProt O43318); assay: Dundee protein kinase screen; conditions: TAK1, 1µM; read-out: %Remaining activity at 1µM NU6300
T2 sequence (O43318 1-303 limits assumed): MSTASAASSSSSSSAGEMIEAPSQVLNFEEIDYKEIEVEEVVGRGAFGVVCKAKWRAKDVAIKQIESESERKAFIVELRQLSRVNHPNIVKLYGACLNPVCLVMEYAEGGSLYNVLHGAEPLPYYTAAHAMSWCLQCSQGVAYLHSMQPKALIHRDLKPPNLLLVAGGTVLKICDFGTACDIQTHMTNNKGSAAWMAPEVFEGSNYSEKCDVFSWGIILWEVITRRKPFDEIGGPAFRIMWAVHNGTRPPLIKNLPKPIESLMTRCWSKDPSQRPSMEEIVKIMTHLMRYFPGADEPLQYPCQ
In short: (§1)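 Selectivity panel of 131 protein kinases, inhibitor tested at a single concentration of 1 µM; values are % kinase activity remaining, mean of duplicates. Re-test of selected kinases used 0.5 µM in the standard format and again after a 4 hour pre-incubation with the inhibitor.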

PKD1 = PKD1 (Homo sapiens, UniProt Q15139); assay: Dundee protein kinase screen; conditions: PKD1, 1µM; read-out: %Remaining activity at 1µM NU6300
In short: as §1

Sequence of PKD1 (Q15139 whole entry): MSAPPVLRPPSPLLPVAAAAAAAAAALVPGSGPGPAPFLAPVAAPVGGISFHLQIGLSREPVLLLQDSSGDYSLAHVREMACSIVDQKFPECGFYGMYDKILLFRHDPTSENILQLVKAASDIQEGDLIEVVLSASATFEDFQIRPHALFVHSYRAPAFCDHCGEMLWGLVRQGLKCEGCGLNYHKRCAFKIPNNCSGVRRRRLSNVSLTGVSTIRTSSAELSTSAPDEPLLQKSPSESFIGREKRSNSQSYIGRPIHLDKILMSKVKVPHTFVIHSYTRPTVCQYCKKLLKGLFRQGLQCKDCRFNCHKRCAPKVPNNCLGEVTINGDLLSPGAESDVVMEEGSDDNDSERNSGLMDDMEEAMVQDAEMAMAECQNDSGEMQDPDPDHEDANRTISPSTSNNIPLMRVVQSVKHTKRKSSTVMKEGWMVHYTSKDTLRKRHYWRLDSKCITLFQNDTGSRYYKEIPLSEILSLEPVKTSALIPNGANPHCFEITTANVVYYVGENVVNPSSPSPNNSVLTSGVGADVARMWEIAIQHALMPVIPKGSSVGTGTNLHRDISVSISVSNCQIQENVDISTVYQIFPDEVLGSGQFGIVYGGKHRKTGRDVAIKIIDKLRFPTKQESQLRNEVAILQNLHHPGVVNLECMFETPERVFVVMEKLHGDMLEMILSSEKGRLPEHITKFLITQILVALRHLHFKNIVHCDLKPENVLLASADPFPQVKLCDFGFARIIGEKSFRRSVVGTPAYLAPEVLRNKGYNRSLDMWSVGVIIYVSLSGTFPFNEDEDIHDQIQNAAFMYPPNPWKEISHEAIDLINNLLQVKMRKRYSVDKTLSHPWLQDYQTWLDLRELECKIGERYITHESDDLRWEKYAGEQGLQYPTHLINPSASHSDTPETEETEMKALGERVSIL

CDK2 activity against Rb after incubation with inhibitor and dialysis (CDK2^K88E/cyclin A)	Compound	remaining activity at 1 µM (TAK1)	remaining activity at 1 µM (PKD1)
recovered their activity	CCS(=O)(=O)c1ccc(Nc2nc(OCC3CCCCC3)c3nc[nH]c3n2)cc1 [NU6310, 6-(cyclohexylmethoxy)-N-(4-(ethylsulfonyl)phenyl)-9H-purin-2-amine]	–	–
–	C=CS(=O)(=O)c1ccc(Nc2nc(OCC3CCCCC3)c3nc[nH]c3n2)cc1 [NU6300, 6-(cyclohexylmethoxy)-N-(4-(vinylsulfonyl)phenyl)-9H-purin-2-amine]	14%	55%

Reference: article PMC4579270, “Identification and Characterization of an Irreversible Inhibitor of CDK2” (Chemistry & Biology, 2015)
